molecular target: T1, rat mGluR5 (Rattus norvegicus, UniProt P31424); assay: mGluR5 calcium flux assay in HEK 293A cells, negative allosteric modulation of glutamate EC80 response; type: cell-based; settings: HEK cells transfected with rat mGluR5; glutamate EC80; ± is standard error of at least three experiments
T1 construct: expressed in transfected cells
Experimental: HEK 293A cells stably expressing either rat or human mGluR5 were plated in black-walled, clear-bottomed, poly-D-lysine coated 384-well plates in 20 μL of assay medium (DMEM containing 10% dialyzed FBS, 20 mM HEPES, 100 units/mL penicillin/streptomycin plus 250 ng/mL Fungizone, and 1 mM sodium pyruvate) at a density of 20K cells/well. The cells were grown overnight at 37° C. in the presence of 5% CO2. The next day, medium was removed and the cells incubated with 20 μL of 2.3 µM Fluo-4, AM prepared as a 2.3 mM stock in DMSO and mixed in a 1:1 ratio with 10% (w/v) pluronic acid F-127 and diluted in assay buffer (Hank's balanced salt solution, 20 mM HEPES, and 2.5 mM probenecid) for 45 minutes at 37° C. Dye was removed, 20 μL of assay buffer was added, and the plate was incubated for 5 minutes at room temperature.
Ca^2+ flux was measured using the Functional Drug Screening System (FDSS7000, Hamamatsu, Japan). After establishment of a fluorescence baseline for about 3 seconds, the compounds of the present invention were added to the cells, and the response in cells was measured. 2.3 minutes later an EC20 concentration of the mGluR5 receptor agonist glutamate was added to the cells, and the response of the cells was measured for 1.9 minutes; an EC80 concentration of agonist was added and readings taken for an additional 1.7 minutes. All test compounds were dissolved and diluted to a concentration of 10 mM in 100% DMSO. Compounds were then serially diluted 1:3 in DMSO into 10 point concentration response curves, transferred to daughter plates, and further diluted into assay buffer to a 2× stock. Calcium fluorescence measures were recorded as fold over basal fluorescence; raw data was then normalized to the maximal response to glutamate. Antagonism of the agonist response of the mGluR5 receptor in the present invention was observed as a decrease in response to nearly maximal concentrations of glutamate in the presence of compound compared to the response to glutamate in the absence of compound.
The raw data file containing all time points was used as the data source in the analysis template. This was saved by the FDSS as a tab-delimited text file. Data were normalized using a static ratio function (F/F0) for each measurement of the total 360 values per well divided by each well's initial value. Data were then reduced to peak amplitudes (Max−Initial Min) using a time range that starts approximately 3 seconds prior to the glutamate EC20/EC80 addition and continues for approximately 90-120 seconds. This is sufficient time to capture the peak amplitude of the cellular calcium response. Individual amplitudes were expressed as % EMax by multiplying each amplitude by 100 and then dividing the product by the mean of the amplitudes derived from the glutamate ECMax-treated wells. IC50 values for test compounds were generated by fitting the normalized values versus the log of the test compound concentration (in mol/L) using a 4 parameter logistic equation where none of the parameters were fixed. Each of the three values collected at each concentration of test compound were weighted evenly.
For NAMs with a CRC that plateaus above 10% Glu Max, the IC50 values are reported, the compound is designated a “partial NAM” and the % Glu Max is reported. […] Compounds without measurable activity are designated as “>30,000 nM” since the top concentration of compound tested in the assay is 30 µM. Exemplary data are provided in Tables 1 and 2 below.
Table 1 below lists specific compounds, experimentally determined molecular mass, and mGluR5 activity determined in a cell-based assay. The mGluR5 activity was determined using the metabotropic glutamate receptor activity assays in human embryonic kidney cells as described herein, wherein the human embryonic kidney cells were transfected with rat mGluR5. The mGluR5 activity data for some compounds are shown as the average of at least three experiments with the standard error in these cases. […]

T1 sequence (P31424 21-1203): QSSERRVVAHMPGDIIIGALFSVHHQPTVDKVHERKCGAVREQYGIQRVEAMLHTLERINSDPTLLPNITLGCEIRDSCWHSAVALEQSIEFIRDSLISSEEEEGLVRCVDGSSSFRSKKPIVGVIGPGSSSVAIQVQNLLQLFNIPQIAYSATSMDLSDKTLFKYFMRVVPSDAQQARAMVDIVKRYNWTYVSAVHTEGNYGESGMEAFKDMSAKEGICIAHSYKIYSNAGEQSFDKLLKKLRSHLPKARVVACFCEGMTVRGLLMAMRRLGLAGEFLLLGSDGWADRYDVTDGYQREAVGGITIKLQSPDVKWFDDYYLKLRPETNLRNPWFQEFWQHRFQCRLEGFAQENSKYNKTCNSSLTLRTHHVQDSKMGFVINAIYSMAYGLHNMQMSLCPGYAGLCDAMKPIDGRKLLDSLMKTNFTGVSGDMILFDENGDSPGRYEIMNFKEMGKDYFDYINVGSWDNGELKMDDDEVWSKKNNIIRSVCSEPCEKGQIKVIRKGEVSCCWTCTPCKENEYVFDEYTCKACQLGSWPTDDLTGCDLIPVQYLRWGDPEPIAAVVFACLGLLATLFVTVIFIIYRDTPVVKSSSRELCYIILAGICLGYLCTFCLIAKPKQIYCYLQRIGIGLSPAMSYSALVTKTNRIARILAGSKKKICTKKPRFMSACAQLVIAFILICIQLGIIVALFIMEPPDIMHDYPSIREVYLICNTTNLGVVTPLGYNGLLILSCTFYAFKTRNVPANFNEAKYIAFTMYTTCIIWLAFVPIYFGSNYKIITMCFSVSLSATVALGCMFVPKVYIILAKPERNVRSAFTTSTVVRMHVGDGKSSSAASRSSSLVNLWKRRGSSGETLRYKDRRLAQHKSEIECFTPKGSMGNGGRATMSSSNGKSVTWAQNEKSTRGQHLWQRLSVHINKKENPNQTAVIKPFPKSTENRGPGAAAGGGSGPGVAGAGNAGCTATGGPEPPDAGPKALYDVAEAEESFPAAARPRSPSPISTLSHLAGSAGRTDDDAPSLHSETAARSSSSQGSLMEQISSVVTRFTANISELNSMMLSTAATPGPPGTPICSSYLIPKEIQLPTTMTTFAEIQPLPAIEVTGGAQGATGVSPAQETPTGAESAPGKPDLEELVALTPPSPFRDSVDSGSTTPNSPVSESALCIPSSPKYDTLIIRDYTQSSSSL

| SMILES | IC50 |
| --- | --- |
| Cc1cc(OC2CCCC2)cc(C(=O)Nc2ccc(F)cn2)n1 | 3660 nM |
| Cc1cc(OC[C@H]2CCOC2)cc(C(=O)Nc2ccccn2)n1 | 972 nM |
| COc1cccc(NC(=O)c2cc(OC3COC3)cc(C)n2)n1 | 1050 nM |
| COc1ccc(NC(=O)c2cc(OC3COC3)cc(C)n2)nc1 | 1390 nM |
| Cc1cc(OC2COC2)cc(C(=O)Nc2ccc(Cl)cn2)n1 | 1530 nM |
| Cc1cc(OC2CC3(COC3)C2)cc(C(=O)Nc2ccccn2)n1 | 1680 nM |
| Cc1cc(OCC2COCCO2)cc(C(=O)Nc2ccc(F)cn2)n1 (stereo not drawn) | 7680 nM |
| Cc1ccc(NC(=O)c2cc(OC3COC3)cc(C)n2)nc1 | 1480 nM |
| Cc1cc(OC2CC3(COC3)C2)cc(C(=O)Nc2ccc(F)cn2)n1 | 3710 nM |
| Cc1cc(OCC2COCCO2)cc(C(=O)Nc2ccccn2)n1 (stereo not drawn) | 1780 nM |
| Cc1cc(OC2(C)COC2)cc(C(=O)Nc2ccc(F)cn2)n1 | 863 nM |
| Cc1cc(O[C@H]2CO[C@@H](C)C2)cc(C(=O)Nc2ccc(F)cn2)n1 | 4470 ± 260 nM |
| Cc1cc(OCC2CCOCC2)cc(C(=O)Nc2ccccn2)n1 | 1460 nM |
| Cc1cc(OCC2CCCCO2)cc(C(=O)Nc2ccc(F)cn2)n1 (stereo not drawn) | ≥ 10000 nM |
| Cc1cc(OCC2CCOCC2)cc(C(=O)Nc2ccc(F)cn2)n1 | 5720 nM |
| Cc1cc(OCC2CCCCO2)cc(C(=O)Nc2ccccn2)n1 (stereo not drawn) | 2970 nM |
| Cc1cc(OCC2CCCCO2)cc(C(=O)Nc2nc(C)cs2)n1 (stereo not drawn) | 1920 nM |
| CC(=O)N1CC(Oc2cc(C)nc(C(=O)Nc3ccc(F)cn3)c2)C1 | 756 ± 130 nM |
| Cc1cc(OC2CN(S(C)(=O)=O)C2)cc(C(=O)Nc2ccc(F)cn2)n1 | 1310 nM |
| CCOCCOc1cc(C)nc(C(=O)Nc2ccccn2)c1 | 842 nM |
| CCOCCOc1cc(C)nc(C(=O)Nc2ccc(F)cn2)c1 | 2100 nM |
| COCCOCCOc1cc(C)nc(C(=O)Nc2ccccn2)c1 | 2540 nM |
| COCCOCCOc1cc(C)nc(C(=O)Nc2nc(C)cs2)c1 | 954 nM |

| SMILES | IC50 |
| --- | --- |
| COCCCOc1cc(C)nc(C(=O)Nc2ccc(F)cn2)c1 | 2630 nM |
| COC[C@H](C)Oc1cc(C)nc(C(=O)Nc2ccccn2)c1 | 2720 nM |
| COC[C@H](C)Oc1cc(C)nc(C(=O)Nc2nc(C)cs2)c1 | 932 nM |
| COC[C@@H](C)Oc1cc(C)nc(C(=O)Nc2ccc(F)cn2)c1 | 9100 nM |
| COCCOCCOc1cc(C)nc(C(=O)Nc2ccc(F)cn2)c1 | 6930 nM |
| COCCCOc1cc(C)nc(C(=O)Nc2ccccn2)c1 | 844 nM |
| COC[C@H](C)Oc1cc(C)nc(C(=O)Nc2ccc(F)cn2)c1 | 7610 nM |
| COC[C@@H](C)Oc1cc(C)nc(C(=O)Nc2ccccn2)c1 | 2130 nM |
| COC[C@@H](C)Oc1cc(C)nc(C(=O)Nc2nc(C)cs2)c1 | 1030 nM |
| CO[C@@H](C)COc1cc(C)nc(C(=O)Nc2ccc(F)cn2)c1 | 4930 nM |
| Cc1cc(O[C@@H]2CCOC2)cc(C(=O)Nc2nc(C(F)(F)F)cs2)n1 | 2040 nM |
| CO[C@@H](C)COc1cc(C)nc(C(=O)Nc2ccccn2)c1 | 2210 nM |
| CO[C@@H](C)COc1cc(C)nc(C(=O)Nc2nc(C)cs2)c1 | 1050 nM |
| Cc1cc(O[C@H]2CO[C@H](C)C2)cc(C(=O)Nc2nc(C(F)F)cs2)n1 | 902 nM |
| Cc1cc(O[C@H]2CO[C@H](C)C2)cc(C(=O)Nc2nc(C(F)(F)F)cs2)n1 | 5200 nM |
| Cc1cc(O[C@H]2CO[C@H](C)C2)cc(C(=O)Nc2nc(C3CC3)cs2)n1 | 899 nM |
| Cc1cc(OC2CS(=O)(=O)C2)cc(C(=O)Nc2ccc(F)cn2)n1 | 742 nM |
| Cc1cc(OC2CN(C(=O)CC(C)C)C2)cc(C(=O)Nc2nc(C)cs2)n1 | 1670 nM |
| Cc1cc(O[C@H]2CO[C@H](C)C2)cc(C(=O)Nc2nc(C)c(F)s2)n1 | 1290 nM |
| CCC(=O)N1CC(Oc2cc(C)nc(C(=O)Nc3ccc(F)cn3)c2)C1 | 3400 nM |
| Cc1cc(OC2CN(C(=O)CC(C)C)C2)cc(C(=O)Nc2ccc(F)cn2)n1 | 4330 nM |
| CCOC(=O)N1CC(Oc2cc(C)nc(C(=O)Nc3nc(C)cs3)c2)C1 | 862 nM |
| COC(=O)N1CC(Oc2cc(C)nc(C(=O)Nc3ccc(F)cn3)c2)C1 | 1570 nM |

Compounds with a lower IC50, results first:

| IC50 | SMILES |
| --- | --- |
| 182 nM | Cc1cc(OC2CCCC2)cc(C(=O)Nc2ccccn2)n1 |
| 149 nM | Cc1cc(OC2CCCC2)cc(C(=O)Nc2nc(C)cs2)n1 |
| 41 ± 3 nM | Cc1cc(O[C@@H]2CCOC2)cc(C(=O)Nc2ccc(F)cn2)n1 |
| 182 nM | Cc1cc(OC2CCC2)cc(C(=O)Nc2ccc(F)cn2)n1 |
| 66 nM | Cc1cc(OC2COC2)cc(C(=O)Nc2ccccn2)n1 |
| 70 ± 10 nM | Cc1cc(OC2COC2)cc(C(=O)Nc2nc(C)cs2)n1 |
| 469 nM | Cc1cc(OC[C@@H]2CCOC2)cc(C(=O)Nc2ccc(F)cn2)n1 |
| 364 nM | Cc1cc(OC[C@H]2CCOC2)cc(C(=O)Nc2nc(C)cs2)n1 |
| 527 nM | COCCOc1cc(C)nc(C(=O)Nc2ccc(F)cn2)c1 |
| 59 nM | Cc1cccc(NC(=O)c2cc(OC3COC3)cc(C)n2)n1 |
| 162 nM | Cc1cc(OC2COC2)cc(C(=O)Nc2cccc(Cl)n2)n1 |
| 433 nM | Cc1cc(OC2CC3(COC3)C2)cc(C(=O)Nc2nc(C)cs2)n1 |
| 39 nM | Cc1cc(OC2CCSC2)cc(C(=O)Nc2ccccn2)n1 (stereo not drawn) |
| 77 nM | Cc1cc(OC2CCSC2)cc(C(=O)Nc2nc(C)cs2)n1 (stereo not drawn) |
| 616 nM | Cc1cc(OCC2COCCO2)cc(C(=O)Nc2nc(C)cs2)n1 (stereo not drawn) |
| 75 nM | Cc1cc(OC2CCSC2)cc(C(=O)Nc2ccc(F)cn2)n1 (stereo not drawn) |
| 175 ± 21 nM | Cc1cc(O[C@H]2CO[C@H](C)C2)cc(C(=O)Nc2ccc(F)cn2)n1 |
| 81 ± 13 nM | Cc1cc(O[C@H]2CO[C@H](C)C2)cc(C(=O)Nc2nc(C)cs2)n1 |
| 610 nM | Cc1cc(OCC2CCOCC2)cc(C(=O)Nc2nc(C)cs2)n1 |

| IC50 | SMILES |
| --- | --- |
| 634 nM | Cc1cc(OC2CCS(=O)(=O)C2)cc(C(=O)Nc2ccc(F)cn2)n1 (stereo not drawn) |
| 684 ± 107 nM | Cc1cc(O[C@H]2CO[C@@H](C)C2)cc(C(=O)Nc2nc(C)cs2)n1 |
| 364 nM | CCOCCOc1cc(C)nc(C(=O)Nc2nc(C)cs2)c1 |
| 506 nM | COCCCOc1cc(C)nc(C(=O)Nc2nc(C)cs2)c1 |
| 194 nM | CO[C@H](C)COc1cc(C)nc(C(=O)Nc2ccccn2)c1 |
| 145 nM | CO[C@H](C)COc1cc(C)nc(C(=O)Nc2nc(C)cs2)c1 |
| 71 nM | Cc1cc(O[C@@H]2CCOC2)cc(C(=O)Nc2nc(CF)cs2)n1 |
| 247 nM | Cc1cc(O[C@@H]2CCOC2)cc(C(=O)Nc2nc(C(F)F)cs2)n1 |
| 153 nM | Cc1cc(O[C@@H]2CCOC2)cc(C(=O)Nc2nc(C3CC3)cs2)n1 |
| 718 nM | CO[C@H](C)COc1cc(C)nc(C(=O)Nc2ccc(F)cn2)c1 |
| 180 nM | Cc1cc(O[C@H]2CO[C@H](C)C2)cc(C(=O)Nc2nc(CF)cs2)n1 |
| 171 nM | Cc1cc(O[C@@H]2CCOC2)cc(C(=O)Nc2nc(C)c(F)s2)n1 |
| 37 nM | Cc1cc(OC2CSC2)cc(C(=O)Nc2ccc(F)cn2)n1 |
| 533 nM | Cc1cc(OC2C[S+]([O-])C2)cc(C(=O)Nc2ccc(F)cn2)n1 (stereo not drawn) |
| 388 nM | CC(=O)N1CC(Oc2cc(C)nc(C(=O)Nc3nc(C)cs3)c2)C1 |
| 31 nM | Cc1cc(OC2CSC2)cc(C(=O)Nc2nc(C)cs2)n1 |
| 180 nM | Cc1cc(OC2C[S+]([O-])C2)cc(C(=O)Nc2nc(C)cs2)n1 (stereo not drawn) |
| 392 nM | Cc1cc(OC2CS(=O)(=O)C2)cc(C(=O)Nc2nc(C)cs2)n1 |
| 611 nM | CCC(=O)N1CC(Oc2cc(C)nc(C(=O)Nc3nc(C)cs3)c2)C1 |

From US20170247366A1, “SUBSTITUTED 4-ALKOXYPICOLINAMIDE ANALOGS AS MGLUR5 NEGATIVE ALLOSTERIC MODULATORS AND METHODS OF MAKING AND USING THE SAME” (VANDERBILT UNIVERSITY, priority 2014, published 2017)
